The record followed here is patent US20190160016A1, “Anti-Parasitic Compositions and Methods” (University of Canberra, priority 2016, published 2019).

Experiment [1] deals with P. humanus capitis adults and nymphs. Briefly: filter paper diffusion bioassay, pediculicidal activity. To be noted: mean individual louse survival time, in vitro pediculicidal treatment. An excerpt:
Adults, nymphs, and nits of P. humanus capitis were collected from a population of children between the ages of 3 and 12, with the approval of their guardians, by raking a metal louse comb through sections of the scalp. Adult and nymph lice as well as nits (eggs) were obtained and pooled by carefully removing them from the metal teeth of the comb into clean plastic boxes. The children had not been treated with any pediculicide solution for at least the preceding month, using only the louse comb.
For testing the pediculicidal activity, a filter paper diffusion bioassay was made with adults and nymphs of the insect collected from heads no more than 4 hours before carrying out the assay. After careful selection under a dissecting microscope, 10 lice in a ratio of 8:2 adult:nymph III were placed on a filter paper disk (Whatman No 1; 9-cm diameter) on the lid of a Petri dish. Next, 0.5 ml of either (a) each test solution; (b) distilled water with Tween-20 (control); and (c) distilled water, Tween-20, and preserving agents (excipient control), were spread over the lice and filter paper for each group. The commercial lotions (containing tea tree oil and permethrin as chief active components) (0.5 ml) were simultaneously run as a positive controls. Three to nine replicates were conducted for each treatment. […] The number of dead lice were recorded for each dish.

In experiment [2] the test system is Sarcoptes scabiei nits. In words: ovicidal activity against scabies eggs (hatching rate). Here is the method: To determine the ovicidal activity of Manuka oil and its fraction, dilutions to 2.5% and 5% were made in olive oil. […] Six independent experiments were conducted on separate days.

Regarding `CC1(C)C(C=C(Cl)Cl)C1C(=O)OCc1cccc(Oc2ccccc2)c1` (stereo not shown) [Permethrin, permethrin], the “Mean survival time” value in experiment [1] is reported as 56.4 min.
`CC[C@H](C)[C@H]1O[C@]2(CC[C@@H]1C)C[C@@H]1C[C@@H](C/C=C(\C)[C@@H](O[C@H]3C[C@H](OC)[C@@H](O[C@H]4C[C@H](OC)[C@@H](O)[C@H](C)O4)[C@H](C)O3)[C@@H](C)/C=C/C=C3\CO[C@@H]4[C@H](O)C(C)=C[C@@H](C(=O)O1)[C@]34O)O2` [Ivermectin (100 μ/μL), ivermectin]: the “Percentage inhibition, Day 4” value in experiment [2] (Day 4) is 12.4 ± 5.0%. Also, the “Percentage inhibition, Day 8” value in experiment [2] (Day 8) was 9.8 ± 4.8%. Moreover, in experiment [2] (nymph emergence, Table 2), the “ovicidal activity (in words)” value is “poor ovicidal activity”.
